Results on 1 molecule are retold here after paper PMC8406801, “Naringenin Inhibits Platelet Activation and Arterial Thrombosis Through Inhibition of Phosphoinositide 3-Kinase and Cyclic Nucleotide Signaling” (Frontiers in Pharmacology, 2021).

For experiment [1], the system named is Akt Thr308 phosphorylation. In words: Ex vivo immunoblotting of phospho-Akt (Thr308) in ADP-stimulated PRP of treated rats. On the set-up: species or system rat. The following applies: for p-Akt Thr308 / t-Akt (Fold to Control) / p-Akt Thr308 / t-Akt (raw data): ex vivo, Figure 8D. On the procedure: Male SD rats were randomly divided into 5 groups with 6 rats in each group. […] Sixty minutes after the last sample treatment, blood was drawn from the abdominal aorta of rats into the siliconized vacutainers containing 1:9 (v/v) 3.8% sodium citrate. The collected blood was centrifuged at 100 × g for 10 min at room temperature to obtain PRP. […] The platelet counts of PRP were adjusted to 4×10^8 cells/mL using PPP. PRP was incubated for 5 min at 37°C and then stimulated by ADP (5 μM). The maximum platelet aggregation rate was determined as mentioned above.
For in vitro platelet aggregation, aliquots of washed platelets were preincubated with vehicle or various concentrations of naringenin for 5 min and stimulated with ADP (10 μmol/L) under stirring at 37°C for 5 min. For ex vivo platelet aggregation, PRP was incubated at 37°C for 5 min and stimulated with ADP (5 μmol/L) under stirring at 37 °C. The platelet aggregation was terminated by adding ethylenediaminetetraacetic acid (EDTA; 10 mM). Total protein was prepared using RIPA lysis buffer and protein content was determined by bicinchoninic acid (BCA) protein assay kit. Equal amounts of platelet proteins (30 μg) were separated on 10% SDS polyacrylamide gel electrophoresis (SDS-PAGE) and then transferred to poly vinylidene difluoride (PVDF) membranes and subjected to western blot. Blots were blocked with TBS-Tween 20 containing 5% BSA and probed with primary antibodies diluted in blocking solution at 4°C overnight followed by incubation with the corresponding HRP secondary antibodies. The protein bands were visualized using enhanced chemiluminescence (ECL).
Blood was collected and PRP was obtained after the last treatment. Platelet aggregation was induced by ADP (5 μmol/L) (A). Data are expressed as means ± SD (n = 6). After ADP stimulation, platelet proteins were then extracted and analyzed by immunoblotting using PI3Kp110β antibody (B) and phospho-specific antibodies such as Akt^Ser473 (C), Akt^Thr308 (D) and ERK1/2^Thr202/Tyr204 (E). Total level of GAPDH was measured on each sample as a loading control. The blots shown are representative of three separate experiments. The relative protein expression levels were quantified by ImageJ 1.47v software. The level of relative protein expression obtained with vehicle control was taken as 1. R represents the level of relative protein expression in resting platelets. Data are expressed as means ± SD (n = 3). *p < 0.05, **p < 0.01, ***p < 0.001 compared with the vehicle control group (Con).
To further investigate the antiplatelet mechanisms of naringenin ex vivo, several signaling molecules such as PI3Kp110β, Akt and ERK were detected. After oral administration of naringenin (200, 400, and 800 mg/kg) to rats for 7 days, rat PRP was prepared and stimulated by ADP (5 μmol/L), and platelets were lysed to determine protein phosphorylation levels using western blot.

Experiment [2] relates to PDE extracts prepared from rat PRP (cAMP hydrolysis). Briefly: Phosphodiesterase activity in platelet extracts, hydrolysis of cAMP (HPLC). The class given is biochemical. The following applies: vehicle = 100%, single replicates. The protocol: The effects of naringenin on PDE activity were determined using high-performance liquid chromatography (HPLC) ([Hu et al., 2011]). Briefly, PRP was pelleted by centrifugation for 10 min at 900 × g and homogenized in PBS containing 0.1% Triton X-100 using an ultrasonic homogenizer. After centrifugation at 12,000 × g for 20 min at 4°C, the supernatant was subjected to PDE activity assay.
DMSO vehicle or different concentrations naringenin were added to assay buffer (137 mM NaCl, 2.7 mM KCl, 8.8 mM Na2HPO4, 1.5 mM KH2PO4, 1 mM CaCl2, 1 mM MgCl2, pH 7,4) containing cAMP or cGMP. The reaction was initiated by adding 30 μL PDE extracts prepared from rat PRP as described above. Some extracts were boiled for 3 min to inactivate PDE before addition. After incubation for 30 min at […], the reaction was terminated by boiling the mixture for 3 min. Subsequently, the mixture was cooled on ice followed by centrifugation at 12,000 × g for 20 min at 4°C. The supernatant was subjected cAMP or cGMP assay using HPLC. PDE activity was expressed as percentages of the hydrolysis of cAMP or cGMP.

A further experiment has as its system PRP. In words: Clot retraction. In kind it is cell-based, rat. As to conditions: PRP, 200, 400, and 800 μM, thrombin 1 U/mL, 15 min. The protocol: PRP was incubated with vehicle or different concentrations of naringenin for 10 min at 37°C. Clot retraction was initiated by adding fibrinogen (400 μg/ml) and thrombin (1 U/mL), and allowed to proceed at 37°C. Images were taken 15 min later.

A further experiment has as its system cAMP. Briefly: Measurement of cAMP in washed platelets (ELISA). As to conditions: single replicates. The class given is cell-based, rat. On the procedure: Washed platelets were preincubated with vehicle or various concentrations of naringenin in the presence of 2 mM CaCl2 at 37°C for 5 min and then stimulated with ADP (10 μM) for 5 min for platelet aggregation. The reaction was terminated by adding EDTA (10 mM). The platelets were boiled for 5 min at 100 °C followed by centrifugation at 13,000 × g for 5 min cAMP and cGMP levels in the supernatant were measured using cAMP or cGMP enzyme immunoassay kits (Cayman Chemicals, Ann Arbor, MI, United States).
FIGURE 6 Naringenin elevates platelet cGMP levels and inhibits phosphodiesterase activity. The levels of cAMP (A) and cGMP (B) in washed platelets preincubated with vehicle or naringenin (100, 200, 400, and 800 μmol/L) were determined after stimulation with ADP (10 μmol/L) using ELISA kits. Similarly, the levels of cAMP (C) and cGMP (D) were determined in resting platelets incubated with naringenin (200, 400, and 800 μmol/L) or vehicle for 5 min. R represents the levels of cAMP or cGMP in resting platelets. Data are expressed as means ± SD (n = 4). *p < 0.05, ***p < 0.001 compared with the vehicle control group. The effects of naringenin on phosphodiesterase activity were measured by HPLC on the hydrolysis of cAMP (E) and cGMP (F). The level of phosphodiesterase activity obtained with vehicle control (0 μM) was taken as 100%. Data are expressed as means ± SD (n = 3). *p < 0.05, ***p < 0.001 compared with the vehicle control group.
A general note: An ELISA detects its analyte on a solid surface through an enzyme-linked reagent.

SMILES strings stand for the structures. Where “and” joins values, the source holds several entries; their conditions need not be identical. Equal values may be shown once.

In the case of `O=C1C[C@@H](c2ccc(O)cc2)Oc2cc(O)cc(O)c21` [Naringenin], the “p-Akt Thr308 / t-Akt (Fold to Control)” value is 0.5157 and 0.5526 and 0.5291 in experiment [1] (naringenin 200mg/kg); 0.3273 and 0.3649 and 0.3395 in experiment [1] (naringenin 400mg/kg); 0.3636 and 0.3541 and 0.3985 in experiment [1] (naringenin 800mg/kg). Also, the “p-Akt Thr308 / t-Akt (raw data)” value in experiment [1] (naringenin 200mg/kg) is 0.4340 and 0.4650 and 0.4452; in experiment [1] (naringenin 400mg/kg) it was 0.2755 and 0.3071 and 0.2857; in experiment [1] (naringenin 800mg/kg), 0.3060 and 0.2979 and 0.3354. Further, the “phosphorylation of Akt at Thr308 in rat PRP ex vivo” value in experiment [1] (rats, oral 200, 400, and 800 mg/kg for 7 days, ADP 5 μmol/L) was “significantly suppressed”. Besides, the “PDE activity (%)” value in experiment [2] (100 μM) is 78.12% and 75.15% and 93.45%; in experiment [2] (200 μM), 76.39% and 84.94% and 63.29%; in experiment [2] (400 μM), 79.01% and 85.41% and 68.34%; in experiment [2] (800 μM) it was 43.72% and 69.43% and 76.24%. In addition, in the experiment on PRP, the clot retraction result was “significantly reduced”. The “cAMP release” value in the experiment on cAMP (ADP 10 μmol/L-stimulated platelets, 100 μM) was 21.36 pmol/mL and 22.41 pmol/mL and 21.09 pmol/mL and 22.01 pmol/mL; in the experiment on cAMP (ADP 10 μmol/L-stimulated platelets, 200 μM), 21.75 pmol/mL and 22.14 pmol/mL and 22.01 pmol/mL and 23.59 pmol/mL; with cAMP (ADP 10 μmol/L-stimulated platelets, 400 μM), 27.54 pmol/mL and 26.36 pmol/mL and 22.01 pmol/mL and 20.04 pmol/mL; in the experiment on cAMP (ADP 10 μmol/L-stimulated platelets, 800 μM), 22.54 pmol/mL and 21.62 pmol/mL and 23.20 pmol/mL and 26.75 pmol/mL; with cAMP (resting platelets, 200 μM, 5 min), 19.51 pmol/mL and 23.07 pmol/mL and 21.88 pmol/mL and 25.17 pmol/mL; in the experiment with cAMP (resting platelets, 400 μM, 5 min) it was 23.59 pmol/mL and 22.67 pmol/mL and 21.88 pmol/mL and 20.96 pmol/mL. Besides, the “cAMP release” value with cAMP (resting platelets, 800 μM, 5 min) was 19.64 pmol/mL and 23.59 pmol/mL and 22.67 pmol/mL and 22.14 pmol/mL.
